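Growth conditions: 96-well plates. Treatment: test compound, 48 hours, 5 concentrations. Analysis: linear interpolation between bracketing concentrations; unreached endpoints set to highest concentration. Abbreviation: GI50, concentration required for 50% inhibition of growth.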 Active and inactive are the calls of the source. No stated cut-off is given here; in the data, active = GI50 up to about 1.1 µM and inactive = higher.

Among the test systems are OVCAR-4; A498; OVCAR-5; OVCAR-8; Malme-3M; NCI/ADR-RES; HCT-15; SF-268; K562; UO-31; ACHN; LOX IMVI; KM12; HCT-116; SNB-19; SK-MEL-5; SF-295; SK-MEL-28; HCC 2998; SK-MEL-2.
Assay in all cases: growth of human tumour cells (NCI), 48 h

On to `COC(=O)[C@]1(c2cc3ccccc3n2S(=O)(=O)c2ccccc2)CC2CN(C(C)=O)C1CC2=O` (stereo not given in full), for which the GI50 with OVCAR-4 was 3580 nM (inactive); in the assay with A498 it was 9640 nM (inactive); with OVCAR-5, 3300 nM (inactive); in the assay on OVCAR-8, 3430 nM (inactive); with Malme-3M, 2770 nM (inactive); in the assay with NCI/ADR-RES, 2870 nM (inactive). Further, the GI50 in the assay on HCT-15 is 2480 nM; with SF-268, 2340 nM (inactive); in the assay on K562, 1980 nM (inactive); in the assay with UO-31, 1820 nM (inactive); in the assay with ACHN, 1910 nM (inactive); with LOX IMVI, 1900 nM (inactive). In addition, the GI50 is 2690 nM (inactive) in the assay with KM12; 1890 nM (inactive) in the assay with HCT-116; 3260 nM (inactive) in the assay on SNB-19; 3270 nM (inactive) in the assay with SK-MEL-5; 12600 nM (inactive) in the assay on SF-295; 3940 nM (inactive) with SK-MEL-28. Moreover, the GI50 was 3230 nM (inactive) with HCC 2998 and 2770 nM (inactive) in the assay on SK-MEL-2.

The values are drawn from ChEMBL document CHEMBL1201862, “PubChem BioAssay data set” (2004).
